Assay [1] relates to KMOE-2 (Acute Myeloid Leukemia). Briefly: Bliss excess, mean over the matrix (fraction); higher = more synergy. The method, boiled down:
(§1)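 Cell lines grown in DMEM/F12 or RPMI with 10% FBS were plated in 1536-well plates and held 24 hours at 37°C, 5% CO2 before 72 hours of exposure to two-drug dose matrices, with DMSO typically at 0.2%. CellTiter-Glo 2.0 luminescence gave viability, which was converted to inhibition. Vehicle wells were set to 0 and blank wells to 1. Combination Emax is the second-highest inhibition in the matrix, and Bliss excess is the observed combination effect minus the expected EA + EB − EA·EB, where EA and EB are the single-agent effects.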

Assay [2] deals with OVCAR-4 (Ovarian Carcinoma). The assay is described as above. In short, it runs like this:
as §1

Assay [3] concerns JVM-3 (B-Cell Non-Hodgkin's Lymphoma). The description is as above. In short, it runs like this:
as §1

Assay [4] deals with HGC-27 (Gastric Carcinoma). Described as above. The method, boiled down:
as §1

Assay [5] has as its system NUGC-3 (Gastric Carcinoma). The assay is described as above. In short, it runs like this:
as §1

The test system of assay [6] is TE-1 (Esophageal Squamous Cell Carcinoma). Described as above. In short, it runs like this:
as §1

Assay [7] concerns SU8686 (Pancreatic Carcinoma). Described as above. In short, it runs like this: as §1
In assay [8] the test system is HOP-62 (Lung Adenocarcinoma). Description: combination Emax (second highest fraction inhibited in the dose matrix, 72 h); higher = more inhibition; extreme values may be limits of the assay. In short, it runs like this: as §1
Assay [9] has as its system OVCAR-4 (Ovarian Carcinoma). Described as above. The method, boiled down:
as §1

Assay [10] relates to JVM-3 (B-Cell Non-Hodgkin's Lymphoma). The assay is described as above. The method, boiled down: as §1
Assay [11] concerns NCI-H1915 (Non-Small Cell Lung Carcinoma). Described as above. The method, boiled down: as §1
In assay [12] the test system is OSC-20 (Oral Cavity Carcinoma). The description is as above. The method, boiled down:
as §1

The test system of assay [13] is NEC8 (Other Solid Carcinomas). The assay is described as above. The method, boiled down: as §1
Assay [14] concerns NUGC-3 (Gastric Carcinoma). Described as above. The method, boiled down: as §1
Assay [15] has as its system TE-1 (Esophageal Squamous Cell Carcinoma). The description is as above. The method, boiled down: as §1
The subject of assay [16] is SCC-15 (Oral Cavity Carcinoma). The description is as above. The method, boiled down: as §1
For assay [17], the system named is VA-ES-BJ (Other Solid Carcinomas). The description is as above. The method, boiled down: as §1
The subject of assay [18] is C-4-I (Cervical Carcinoma). Described as above. In short, it runs like this: as §1
For assay [19], the system named is HSC-4 (Oral Cavity Carcinoma). The description is as above. In short, it runs like this:
as §1

Another assay concerns PWR-1E (Non-Cancerous). The assay is described as above. The method, boiled down: as §1
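For Bliss excess, mean over the matrix in this document: after 72 h of two-drug dosing.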

For `CN(CCO)CC[C@H](CSc1ccccc1)Nc1ccc(S(=O)(=O)NC(=O)c2ccc(N3CCC([C@@H](O)c4ccccc4-c4ccc(Cl)cc4)CC3)cc2)cc1S(=O)(=O)C(F)(F)F` [AZD4320] + CCN(CCO)CCCOc1ccc2c(Nc3cc(CC(=O)Nc4cccc(F)c4)[nH]n3)ncnc2c1 [AZD2811] (first compound max 1 µM, 7x7, partner max 1 µM), the Bliss excess in assay [1] came to 0.0171; in assay [2], 0.045; in assay [3], 0.165; in assay [4], 0.032; in assay [5], 0.0077; in assay [6] it was 0.0794. Also, in assay [7], the Bliss excess is -0.03. Besides, the “combination Emax” value in assay [8] stood at 0.359; in assay [9] it was 0.389; in [10] it was 1; in assay [11], 0.31; in assay [12], 0.291; in [13], 0.159. Moreover, the “combination Emax” value in assay [14] turned out to be 0.498; in assay [15], 0.655; in assay [16] it was 0.346; in [17], 0.291; in assay [18], 0.657; in assay [19], 0.517. Besides, the “combination Emax” value in the assay with PWR-1E (Non-Cancerous) was determined as 0.843.
On to `CN(CCO)CC[C@H](CSc1ccccc1)Nc1ccc(S(=O)(=O)NC(=O)c2ccc(N3CCC([C@@H](O)c4ccccc4-c4ccc(Cl)cc4)CC3)cc2)cc1S(=O)(=O)C(F)(F)F` [AZD4320] + C[C@@H]1COCCN1C2=NC(=NC(=C2)C3(CC3)[S@](=N)(=O)C)C4=C5C=CNC5=NC=C4 [AZD6738] (first compound max 1 µM, 7x7, partner max 10 µM), for which the Bliss excess is -0.0399 in [1]; -0.0392 in assay [2]; -0.027 in assay [3]; -0.0321 in assay [4]; -0.0445 in assay [5]; -0.004 in assay [6]. Further, the Bliss excess in assay [7] was -0.0222. Besides, the “combination Emax” value in assay [8] is 0.599; in assay [9] it was 0.794; in [10] it was 0.993; in assay [11], 0.529; in assay [12], 0.358; in assay [13], 0.904. Also, the “combination Emax” value in [14] is 0.756; in assay [15], 0.742; in [16] it was 0.709; in assay [17], 0.863; in assay [18], 0.952; in assay [19], 0.927. The “combination Emax” value with PWR-1E (Non-Cancerous) was 0.971.
Take `CN(CCO)CC[C@H](CSc1ccccc1)Nc1ccc(S(=O)(=O)NC(=O)c2ccc(N3CCC([C@@H](O)c4ccccc4-c4ccc(Cl)cc4)CC3)cc2)cc1S(=O)(=O)C(F)(F)F` [AZD4320] + C[C@@H](Nc1cc(F)cc(F)c1)c1cc(C(=O)N(C)C)cc2c(=O)cc(N3CCOCC3)oc12 [AZD8186] (first compound max 1 µM, 7x7, partner max 3 µM): the Bliss excess in assay [1] is 0.0407; in assay [2] it was 0.0154; in assay [3], 0.0456; in [4] it was -0.0272; in assay [5] it was -0.0383; in assay [6], -0.0549. Moreover, the Bliss excess in assay [7] was -0.0031. The “combination Emax” value came out at 0.602 in assay [8]; 0.322 in assay [9]; 1 in assay [10]; 0.455 in assay [11]; 0.36 in [12]; 0.341 in assay [13]. Besides, the “combination Emax” value in assay [14] stood at 0.777; in assay [15] it was 0.532; in assay [16] it was 0.447; in assay [17], 0.296; in assay [18], 0.611; in assay [19], 0.852. Further, in the assay on PWR-1E (Non-Cancerous), the “combination Emax” value is 0.592.
Regarding `CN(CCO)CC[C@H](CSc1ccccc1)Nc1ccc(S(=O)(=O)NC(=O)c2ccc(N3CCC([C@@H](O)c4ccccc4-c4ccc(Cl)cc4)CC3)cc2)cc1S(=O)(=O)C(F)(F)F` [AZD4320] + Cc1cc2ncnn2cc1Nc1ncc2c(n1)n(C1CCOCC1)c(=O)n2C [AZD7648] (first compound max 1 µM, 7x7, partner max 10 µM), the Bliss excess is -0.0058 in [1]; -0.0412 in [2]; -0.0214 in assay [3]; -0.0473 in assay [4]; -0.0234 in assay [5]; -0.0443 in [6]. In [7], the Bliss excess is -0.0355. Besides, the “combination Emax” value came to 0.167 in assay [8]; 0.127 in [9]; 0.916 in assay [10]; 0.223 in [11]; 0.0714 in assay [12]; 0.159 in [13]. The “combination Emax” value in assay [14] is 0.347; in assay [15], 0.38; in [16] it was 0.265; in assay [17], 0.174; in assay [18], 0.132; in [19] it was 0.129. In the assay with PWR-1E (Non-Cancerous), the “combination Emax” value came to 0.0822.
Take `CN(CCO)CC[C@H](CSc1ccccc1)Nc1ccc(S(=O)(=O)NC(=O)c2ccc(N3CCC([C@@H](O)c4ccccc4-c4ccc(Cl)cc4)CC3)cc2)cc1S(=O)(=O)C(F)(F)F` [AZD4320] + Cn1cnc2c(F)c(Nc3ccc(Br)cc3Cl)c(C(=O)NOCCO)cc21 [Selumetinib] (first compound max 1 µM, 7x7, partner max 3 µM): the Bliss excess in assay [1] is 0.0415; in assay [2], 0.0108; in [3], -0.0225; in assay [4], 0.0579; in assay [5], 0.104; in assay [6], 0.0819. Besides, the Bliss excess in assay [7] is -0.0002. Also, the “combination Emax” value in [8] is 0.536; in assay [9] it was 0.381; in assay [10] it was 1; in assay [11], 0.583; in assay [12], 0.321; in assay [13], 0.341. Besides, the “combination Emax” value in assay [14] stood at 0.762; in assay [15], 0.554; in assay [16], 0.548; in [17] it was 0.203; in assay [18], 0.52; in [19], 0.797. Besides, in the assay with PWR-1E (Non-Cancerous), the “combination Emax” value came out at 0.601.

(Values after the supplement of paper PMC11061612.)
